# Several values for one entry are separate records, joined by “and”; a condition that tells them apart may be missing. Identical values can stand only once. Like-named read-outs stand apart in the source and are kept apart here. Marks after values point to notes of the source that are not given here.
# What was measured:
# mTOR = mTOR (Homo sapiens, UniProt P42345); details: low concentration; Serra et al., 2008; cited from earlier work
# PI3K/mTOR = details: relatively higher concentrations; Serra et al., 2008; cited from earlier work
# [1] = test system: 3 influenza vaccine strains (H1N1, H3N2 and B); test: Primary endpoint: HI GMT increase relative to placebo in at least 2 out of 3 influenza vaccine strains; assay type: in vivo, human; details: for primary endpoint (>=1.2-fold GMT increase relative to placebo in at least 2 out of 3 vaccine strains): ITT population
# Protocol: (§1) The ability of RAD001 to improve immune function in elderly volunteers was evaluated by measuring the serologic response to the 2012 seasonal influenza vaccine. The hemagglutination inhibition (HI) geometric mean titers (GMT) to each of the 3 influenza vaccine strains at baseline and 4 weeks after influenza vaccination are provided in Table 4. The primary analysis variable was the HI GMT ratio (4 weeks post vaccination/baseline). […] This endpoint was chosen because a 1.2-fold increase in the influenza GMT ratio induced by the MF-59 vaccine adjuvant was associated with a decrease in influenza illness (Iob, A et al. (2005) Epidemiol Infect 133:687-693).
# Elderly volunteers >=65 years of age were randomized to one of the 3 RAD001 treatment groups (50 subjects per arm) or placebo (20 subjects per arm). Subjects were treated with study drug for 6 weeks, given a 2 week break, and then received influenza (Aggrippal, Novartis) and pneumoccal (Pneumovax 23, Merck), vaccinations. Response to influenza vaccination was assessed by measuring the geometric mean titers (GMTs) by hemagglutination inhibition assay to the 3 influenza strains (H1N1, H3N2 and B influenza subtypes) in the influenza vaccine 4 weeks after vaccination. The primary endpoints of the study were (1) safety and tolerability and (2) a 1.2 fold increase in influenza titers as compared to placebo in ⅔ of the influenza vaccine strains 4 weeks after vaccination. This endpoint was chosen because a 1.2 fold increase in influenza titers is associated with a decrease in influenza illness post vaccination, and therefore is clinically relevant. […] The pneumococcal vaccine contains antigens from 23 pneumococcal serotypes. Antibody titers to 7 of the serotypes were measured in our subjects.
# [2] = test system: H1N1 A/California/07/2009; test: Hemagglutination inhibition (HI) titers after seasonal influenza vaccination in elderly volunteers pretreated with RAD001 or placebo; assay type: in vivo, human
# Protocol: (§2) From December 2011 to April 2012, 218 elderly volunteers were enrolled in a randomized, observer-blind, placebo-controlled trial. The subjects were randomized to treatment arms using a validated automated randomization system with a ratio of RAD001 to placebo of 5:2 in each treatment arm. The treatment arms were:
# (§3) The trial was observer-blind because the placebo in the RAD001 0.5 mg daily and 20 mg weekly cohorts differed slightly from the RAD001 tablets in those cohorts. […] The treatment duration for all cohorts was 6 weeks during which time subjects underwent safety evaluations in the clinic every 2 weeks. After subjects had been dosed for 4 weeks, RAD001 steady state levels were measured pre-dose and at one hour post dose. After completing the 6 week course of study drug, subjects were given a 2 week drug free break to reverse any possible RAD001-induced immunosuppression, and then were given a 2012 seasonal influenza vaccination (Agrippal®, Novartis Vaccines and Diagnostics, Siena, Italy) containing the strains H1N1 A/California/07/2009, H3N2 A/Victoria/210/2009, B/Brisbane/60/2008. Four weeks after influenza vaccination, subjects had serum collected for influenza titer measurements. Antibody titers to the 3 influenza vaccine strains as well as to 2 heterologous strains (A/H1N1 strain A/New Jersy/8/76 and A/H3N2 strain A/Victoria/361/11) were measured by standard hemagglutination inhibition assay (Kendal, A P et al. (1982) Concepts and procedures for laboratory-based influenza surveillance. Atlanta: Centers for Disease Control and Prevention B17-B35). Levels of IgG and IgM specific for the A/H1N1/California/07/2009 were measured in serum samples taken before and 4 weeks after influenza vaccination as described previously (Spensieri, F. et al. (2013) Proc. Natl. Acad. Sci. USA 110:14330-14335). Results were expressed as fluorescence intensity.
# (§4) The primary analysis of geometric mean titer ratios was done using a normal Bayesian regression model with non-informative priors. This model was fitted to each antibody titer on the log scale. The primary outcome in each model was the Day 84 measurement. The Day 63 measurement was included in the outcome vector. The model fitted using SAS 9.2 proc mixed with the prior statement. The covariance structure of the matrix was considered as unstructured (option type=UN). A flat prior was used. For the secondary analysis of seroconversion rates, logistic regression was used.
# as §1
# (§5) Rates of seroconversion 4 weeks after influenza vaccination were also evaluated. Seroconversion was defined as the change from a negative pre-vaccination titer (i.e., HI titer <1:10) to post-vaccination HI titer≥1:40 or at least 4-fold increase from a non-negative (≥1:10) pre-vaccination HI titer.
# H3N2 A/Victoria/210/2009 = test: as above; assay type: in vivo, human
# Protocol: as §2, §3, §4, §1, §5
# B/Brisbane/60/2008 = test: as above; assay type: in vivo, human
# Protocol: as §2, §3, §4, §1, §5
# clinical = details: human, in vivo
# [3] = test system: A/H3N2 strain A/Victoria/361/11; test: HI titers / seroconversion to heterologous influenza strain not contained in the vaccine; assay type: in vivo, human; details: for Percentage of subjects who seroconvert to heterologous strain 4 weeks after seasonal influenza vaccination: A/H3N2 strain: A/Victoria/361/11
# [4] = test system: A/H1N1 strain A/New Jersey/8/76; assay type: in vivo, human; details: for Percentage of subjects who seroconvert to heterologous strain 4 weeks after seasonal influenza vaccination: A/H1N1 strain: A/NewJersey/8/76
# [5] = Adverse event assessment in elderly volunteers; assay type: in vivo, human; details: for Treatment-related AEs: Total AE(s): N = 53
# Protocol: Adverse event assessment and blood collection for hematologic and biochemical safety assessments were performed during study visits. Adverse event information was also collected in diaries that subjects filled out at home during the 6 weeks they were on study drug. Data on all adverse events were collected from the time of informed consent until 30 days after the last study visit. Events were classified by the investigators as mild, moderate or severe.
# The 4 SAEs were retinal hemorrhage of the left eye with subsequent blindness in a subject with normal platelet counts who had completed a 6 week course of 5 mg weekly RAD001 6 weeks previously; severe back pain in a subject treated with placebo and severe gastroenteritis in a subject treated with placebo. The most common RAD001-related AE was mouth ulcer that, in the majority of cases, was of mild severity.
# [6] = test system: A/H1N1/California/07/2009; test: Anti-influenza IgG and IgM levels in serum before and 4 weeks after vaccination; assay type: in vivo, human; details: all p values >0.05 by Kruskal-Wallis rank sum test
# Protocol: as §3, with “After completing the 6 week course of study drug, subjects were given a 2 week drug free break to reverse any possible RAD001-induced immunosuppression, and then were given a 2012 seasonal influenza vaccination (Agrippal®, Novartis Vaccines and Diagnostics, Siena, Italy) containing the strains H1N1 A/California/07/2009, H3N2 A/Victoria/210/2009, B/Brisbane/60/2008. Four weeks after influenza vaccination, subjects had serum collected for influenza titer measurements.” left out
# [7] = test system: PD-1 positive and PD-1 negative CD4 and CD8 T cells; parameters: species or system human; details: in vivo
# [8] = in vivo
# influenza = details: cited from earlier work
# [9] = cited from earlier work
# [10] = Intention to Treat Population, 0.5 mg
# [11] = Intention to Treat Population, 5 mg
# [12] = Intention to Treat Population, 20 mg
# [13] = Subjects with Baseline Titers <=40, 0.5 mg
# [14] = Subjects with Baseline Titers <=40, 5 mg
# [15] = Subjects with Baseline Titers <=40, 20 mg
smiles,measurement,setting,value
"Cn1c(=O)n(-c2ccc(C(C)(C)C#N)cc2)c2c3cc(-c4cnc5ccccc5c4)ccc3ncc21 [BEZ235, 2-methyl-2-[4-(3-methyl-2-oxo-8-quinolin-3-yl-2,3-dihydro-imidazo[4,5-c]quinolin-1-yl)-phenyl]-propionitrile]",concentration at which mTOR inhibition predominates,mTOR,less than 100 nmol/L
same,concentration giving dual PI3K/mTOR inhibition,PI3K/mTOR,approximately 500 nmol/L
"CO[C@H]1C[C@@H]2CC[C@@H](C)[C@@](O)(O2)C(=O)C(=O)N2CCCC[C@H]2C(=O)O[C@H]([C@H](C)C[C@@H]2CC[C@@H](OCCO)[C@H](OC)C2)CC(=O)[C@H](C)/C=C(\C)[C@@H](O)[C@@H](OC)C(=O)[C@H](C)C[C@H](C)/C=C/C=C/C=C/1C [RAD001, (1R,9S,12S,15R,16E,18R,19R,21R,23 S,24E,26E,28E,30S,32S,35R)-1,18-dihydroxy-12-{(1R)-2-[(1 S,3R,4R)-4-(2-hydroxyethoxy)-3-methoxycyclohexyl]-1-methylethyl}-19,30-dimethoxy-15,17,21,23,29,35-hexamethyl-11,36-dioxa-4-aza-tricyclo[30.3.1.04,9]hexatriaconta-16,24,26,28-tetraene-2,3,10,14,20-pentaone]",primary endpoint (>=1.2-fold GMT increase relative to placebo in at least 2 out of 3 vaccine strains),[1]; 0.5 mg daily or 5 mg weekly,met the GMT primary endpoint
same,primary endpoint (>=1.2-fold GMT increase relative to placebo in at least 2 out of 3 vaccine strains),[1]; 20 mg weekly,but not higher dose (20 mg weekly) cohort met the primary endpoint
same,RAD001 concentration versus increase in titer to each influenza vaccine strain,[1]; RAD001 concentration 1 hour post dose after 4 weeks dosing,inverse exposure/response relationship
same,increase in influenza titers in subjects with low baseline titers versus ITT population,[1]; subset with baseline influenza titers <=1:40,greater RAD001-associated increase in titers
same,Percent of subjects with seroconversion to influenza 4 weeks after vaccination,[2]; [10],27%
same,Percent of subjects with seroconversion to influenza 4 weeks after vaccination,[2]; [11],27%
same,Percent of subjects with seroconversion to influenza 4 weeks after vaccination,[2]; [12],17%
same,Percent of subjects with seroconversion to influenza 4 weeks after vaccination,[2]; [13],42%
same,Percent of subjects with seroconversion to influenza 4 weeks after vaccination,[2]; [14],45%
same,Percent of subjects with seroconversion to influenza 4 weeks after vaccination,[2]; [15],36%
same,Percent of subjects with seroconversion to influenza 4 weeks after vaccination,H3N2 A/Victoria/210/2009; [10],27%
same,Percent of subjects with seroconversion to influenza 4 weeks after vaccination,H3N2 A/Victoria/210/2009; [11],24%
same,Percent of subjects with seroconversion to influenza 4 weeks after vaccination,H3N2 A/Victoria/210/2009; [12],25%
same,Percent of subjects with seroconversion to influenza 4 weeks after vaccination,H3N2 A/Victoria/210/2009; [13],64%
same,Percent of subjects with seroconversion to influenza 4 weeks after vaccination,H3N2 A/Victoria/210/2009; [14],53%
same,Percent of subjects with seroconversion to influenza 4 weeks after vaccination,H3N2 A/Victoria/210/2009; [15],71%
same,Percent of subjects with seroconversion to influenza 4 weeks after vaccination,B/Brisbane/60/2008; [10],27%
same,Percent of subjects with seroconversion to influenza 4 weeks after vaccination,B/Brisbane/60/2008; [11],22%
same,Percent of subjects with seroconversion to influenza 4 weeks after vaccination,B/Brisbane/60/2008; [12],19%
same,Percent of subjects with seroconversion to influenza 4 weeks after vaccination,B/Brisbane/60/2008; [13],40* Percent
same,Percent of subjects with seroconversion to influenza 4 weeks after vaccination,B/Brisbane/60/2008; [14],33%
same,Percent of subjects with seroconversion to influenza 4 weeks after vaccination,B/Brisbane/60/2008; [15],28%
same,concentration at 4 weeks,clinical; 0.5 mg daily,0.9 ng/mL
same,concentration at 4 weeks,clinical; 5 mg weekly,< 0.3 ng/mL
same,concentration at 4 weeks,clinical; 20 mg weekly,0.7 ng/mL
same,increase in HI GMT ratio for heterologous strain as compared to placebo,[3]; 4 weeks after vaccination,higher
same,Percentage of subjects who seroconvert to heterologous strain 4 weeks after seasonal influenza vaccination,[3]; RAD001 0.5 mg daily,38%
same,Percentage of subjects who seroconvert to heterologous strain 4 weeks after seasonal influenza vaccination,[3]; RAD001 5 mg weekly,39%*
same,Percentage of subjects who seroconvert to heterologous strain 4 weeks after seasonal influenza vaccination,[3]; RAD001 20 mg weekly,40%*
same,H3N2 heterologous strain seroconversion rate,"[3]; pooled RAD001 cohorts, versus 20% for placebo (p=0.007)",39%
same,increase in HI GMT ratio for heterologous strain as compared to placebo,[4]; 4 weeks after vaccination,higher
same,Percentage of subjects who seroconvert to heterologous strain 4 weeks after seasonal influenza vaccination,[4]; RAD001 5 mg weekly,16%
same,Percentage of subjects who seroconvert to heterologous strain 4 weeks after seasonal influenza vaccination,[4]; RAD001 20 mg weekly,8%
same,Treatment-related AEs: Total AE(s),[5]; RAD001 0.5 mg daily,35 n (%)
same,Treatment-related AEs: Total AE(s),[5]; RAD001 5 mg weekly,46 n (%)
same,Treatment-related AEs: Total AE(s),[5]; RAD001 20 mg weekly,109 n (%)
same,deaths during the study,"[5]; elderly volunteers, 6 week treatment",No deaths occurred
same,severe AEs assessed as related to RAD001,[5]; mouth ulcers in a subject treated with 20 mg weekly,Only one severe AE
same,change from baseline to 4 weeks post vaccination in anti-H1N1 influenza IgG and IgM levels versus placebo,[6],No significant difference
same,decrease in PD-1-positive CD4 T cells as compared to the placebo cohort,[7],−37.1-−28.5%
same,decrease in PD-1-positive CD8 T cells as compared to the placebo cohort,[7],−43.3-−38.5%
same,decrease in PD-1 positive CD4 T cells compared to placebo cohort,[7],30.2% and 32.7%
same,decrease in PD-1 positive CD8 T cells compared to placebo cohort,[7],37.4% and 41.4%
same,increase in PD-1-negative CD4 T cells as compared to the placebo cohort,[7],3.0-4.9%
same,percentage of CD4 PD-1 positive T cells versus baseline,[7],decreased from baseline
same,percentage of CD8 PD-1 positive cells versus baseline,[7],decreased from baseline
same,significant differences in the percentages of naïve lymphocytes versus placebo,[7],not detected
same,trough level of study dosing regimens relative to approved transplant and oncology regimens,[8]; human,3-20 fold lower
same,average RAD001 trough level,[8],below detection limits
CO[C@H]1C[C@@H]2CC[C@@H](C)[C@@](O)(O2)C(=O)C(=O)N2CCCC[C@H]2C(=O)O[C@H]([C@H](C)C[C@@H]2CC[C@@H](O)[C@H](OC)C2)CC(=O)[C@H](C)/C=C(\C)[C@@H](O)[C@@H](OC)C(=O)[C@H](C)C[C@H](C)/C=C/C=C/C=C/1C [rapamycin],response to influenza vaccination,"influenza; elderly mice, 6 weeks of treatment",improved response to influenza vaccination
same,serologic response to influenza as compared to placebo,influenza; mice vaccinated against influenza in the presence of rapamycin,broader serologic response to influenza
same,lifespan,[9]; mice,extend lifespan
same,spontaneous physical activity,[9]; old mice,increases spontaneous physical activity
